Measured values taken from PubChem BioAssay (NCI).
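These data come from cells grown in 96-well plates and exposed to compound for 48 hours at five concentrations. The concentration for 50% growth inhibition is given as GI50. TGI is the concentration that stops growth completely.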

Experiments:
Assay in all cases: DTP human tumour cell line panel, 48 h
MCF7 breast = test system: MCF7 breast
RXF 393 renal = test system: RXF 393 renal
NCI-H460 lung = test system: NCI-H460 lung
MDA-MB-231 breast = test system: MDA-MB-231 breast
SK-MEL-28 melanoma = test system: SK-MEL-28 melanoma
SNB-75 CNS = test system: SNB-75 CNS
UACC-62 melanoma = test system: UACC-62 melanoma
SK-MEL-5 melanoma = test system: SK-MEL-5 melanoma
OVCAR-3 ovarian = test system: OVCAR-3 ovarian
U251 CNS = test system: U251 CNS
MALME-3M melanoma = test system: MALME-3M melanoma
UO-31 renal = test system: UO-31 renal
A549 NSCLC = test system: A549 NSCLC
SK-OV-3 ovarian = test system: SK-OV-3 ovarian
BT-549 breast = test system: BT-549 breast
ACHN renal = test system: ACHN renal
EKVX NSCLC = test system: EKVX NSCLC
HS 578T breast = test system: HS 578T breast
DU-145 prostate = test system: DU-145 prostate
OVCAR-5 ovarian = test system: OVCAR-5 ovarian
SK-MEL-2 melanoma = test system: SK-MEL-2 melanoma
IGROV1 ovarian = test system: IGROV1 ovarian
SF-539 CNS = test system: SF-539 CNS
TK-10 renal = test system: TK-10 renal
RPMI-8226 leukemia = test system: RPMI-8226 leukemia
HCT-116 colon = test system: HCT-116 colon
CCRF-CEM leukemia = test system: CCRF-CEM leukemia
SN12C renal = test system: SN12C renal
MOLT-4 leukemia = test system: MOLT-4 leukemia
NCI-H226 lung = test system: NCI-H226 lung
LOX IMVI melanoma = test system: LOX IMVI melanoma
UACC-257 melanoma = test system: UACC-257 melanoma
SW-620 colon = test system: SW-620 colon
HOP-62 NSCLC = test system: HOP-62 NSCLC
K-562 leukemia = test system: K-562 leukemia
OVCAR-8 ovarian = test system: OVCAR-8 ovarian
HOP-92 NSCLC = test system: HOP-92 NSCLC
M14 melanoma = test system: M14 melanoma
KM12 colon = test system: KM12 colon
NCI/ADR-RES ovarian = test system: NCI/ADR-RES ovarian
HCT-15 colon = test system: HCT-15 colon
786-0 renal = test system: 786-0 renal
HT29 colon = test system: HT29 colon
SR leukemia = test system: SR leukemia
CAKI-1 renal = test system: CAKI-1 renal
PC-3 prostate = test system: PC-3 prostate
T-47D breast = test system: T-47D breast
SNB-19 CNS = test system: SNB-19 CNS
SF-295 CNS = test system: SF-295 CNS
COLO 205 colon = test system: COLO 205 colon
MDA-MB-435 = test system: MDA-MB-435
NCI-H23 lung = test system: NCI-H23 lung
NCI-H522 lung = test system: NCI-H522 lung
SF-268 CNS = test system: SF-268 CNS
OVCAR-4 ovarian = test system: OVCAR-4 ovarian
HL-60(TB) leukemia = test system: HL-60(TB) leukemia
A498 renal = test system: A498 renal
HCC-2998 colon = test system: HCC-2998 colon

`Cc1cccc(Br)[n+]1[O-]` showed a TGI (MCF7 breast) greater than 100 µM, a TGI (RXF 393 renal) greater than 100 µM and a TGI (NCI-H460 lung) greater than 100 µM. For the same compound, the TGI (MDA-MB-231 breast) was greater than 100 µM, the TGI (SK-MEL-28 melanoma) was greater than 100 µM and the TGI (SNB-75 CNS) was greater than 100 µM. It also gave a TGI (UACC-62 melanoma) greater than 100 µM, a TGI (SK-MEL-5 melanoma) greater than 100 µM and a TGI (OVCAR-3 ovarian) greater than 100 µM. For the same compound, the TGI (U251 CNS) was greater than 100 µM, the TGI (MALME-3M melanoma) was greater than 100 µM and the TGI (UO-31 renal) was greater than 100 µM. It also gave a TGI (A549 NSCLC) greater than 100 µM, a TGI (SK-OV-3 ovarian) greater than 100 µM and a TGI (BT-549 breast) greater than 100 µM. For the same compound, the TGI (ACHN renal) was greater than 100 µM, the TGI (EKVX NSCLC) was greater than 100 µM and the TGI (HS 578T breast) was greater than 100 µM. The TGI (DU-145 prostate) was greater than 100 µM, the TGI (OVCAR-5 ovarian) was greater than 100 µM and the TGI (SK-MEL-2 melanoma) was greater than 100 µM. It also gave a TGI (IGROV1 ovarian) greater than 100 µM, a TGI (SF-539 CNS) greater than 100 µM and a TGI (TK-10 renal) greater than 100 µM. For the same compound, the TGI (RPMI-8226 leukemia) was greater than 100 µM, the TGI (HCT-116 colon) was greater than 100 µM and the TGI (CCRF-CEM leukemia) was greater than 100 µM. For the same compound, the TGI (SN12C renal) was greater than 100 µM, the TGI (MOLT-4 leukemia) was greater than 100 µM and the TGI (NCI-H226 lung) was greater than 100 µM. For the same compound, the TGI (LOX IMVI melanoma) was greater than 100 µM, the TGI (UACC-257 melanoma) was greater than 100 µM and the TGI (SW-620 colon) was greater than 100 µM. For the same compound, the TGI (HOP-62 NSCLC) was greater than 100 µM, the TGI (K-562 leukemia) was greater than 100 µM and the TGI (OVCAR-8 ovarian) was greater than 100 µM. It also gave a TGI (HOP-92 NSCLC) greater than 100 µM, a TGI (M14 melanoma) greater than 100 µM and a TGI (KM12 colon) greater than 100 µM. For the same compound, the TGI (NCI/ADR-RES ovarian) was greater than 100 µM, the TGI (HCT-15 colon) was greater than 100 µM and the TGI (786-0 renal) was greater than 100 µM. The TGI (HT29 colon) was greater than 100 µM, the TGI (SR leukemia) was greater than 100 µM and the TGI (CAKI-1 renal) was greater than 100 µM. It also gave a TGI (PC-3 prostate) greater than 100 µM, a TGI (T-47D breast) greater than 100 µM and a TGI (SNB-19 CNS) greater than 100 µM. The TGI (SF-295 CNS) was greater than 100 µM, the TGI (COLO 205 colon) was greater than 100 µM and the TGI (MDA-MB-435) was greater than 100 µM. For the same compound, the TGI (NCI-H23 lung) was greater than 100 µM, the TGI (NCI-H522 lung) was greater than 100 µM and the TGI (SF-268 CNS) was greater than 100 µM. It also gave a TGI (OVCAR-4 ovarian) greater than 100 µM.
For `CC1CCN(Cc2ccc(NC(=O)c3cc4ccc5cccnc5c4[nH]3)cc2)CC1`, the GI50 (MCF7 breast) was 2.48 µM, the TGI (MCF7 breast) was 14.7 µM and the GI50 (RXF 393 renal) was 2.18 µM. For the same compound, the TGI (RXF 393 renal) was 6.26 µM, the GI50 (NCI-H460 lung) was 4.16 µM and the TGI (NCI-H460 lung) was 28.1 µM. For the same compound, the GI50 (MDA-MB-231 breast) was 5.59 µM, the TGI (MDA-MB-231 breast) was 23.2 µM and the GI50 (SK-MEL-28 melanoma) was 1.79 µM. It also gave a TGI (SK-MEL-28 melanoma) of 3.49 µM, a GI50 (SNB-75 CNS) of 10.8 µM and a TGI (SNB-75 CNS) of 27.8 µM. For the same compound, the GI50 (UACC-62 melanoma) was 2.17 µM, the TGI (UACC-62 melanoma) was 4.54 µM and the GI50 (HL-60(TB) leukemia) was 3.16 µM. The TGI (HL-60(TB) leukemia) was 13.1 µM, the GI50 (OVCAR-3 ovarian) was 7.83 µM and the TGI (OVCAR-3 ovarian) was 39.2 µM. For the same compound, the GI50 (U251 CNS) was 2.8 µM, the TGI (U251 CNS) was 10.3 µM and the GI50 (MALME-3M melanoma) was 2.05 µM. For the same compound, the TGI (MALME-3M melanoma) was 3.72 µM, the GI50 (UO-31 renal) was 2.05 µM and the TGI (UO-31 renal) was 8.18 µM. It also gave a GI50 (SK-OV-3 ovarian) of 6.98 µM, a TGI (SK-OV-3 ovarian) of 42.5 µM and a GI50 (BT-549 breast) of 10.8 µM. The TGI (BT-549 breast) was 24.3 µM, the GI50 (ACHN renal) was 5.47 µM and the TGI (ACHN renal) was 23.1 µM. It also gave a GI50 (HS 578T breast) of 4.09 µM, a TGI (HS 578T breast) of 28.3 µM and a GI50 (DU-145 prostate) of 8.79 µM. It also gave a TGI (DU-145 prostate) greater than 100 µM, a GI50 (OVCAR-5 ovarian) of 11.3 µM and a TGI (OVCAR-5 ovarian) of 35.3 µM. For the same compound, the GI50 (SK-MEL-2 melanoma) was 2.45 µM, the TGI (SK-MEL-2 melanoma) was 6.2 µM and the GI50 (IGROV1 ovarian) was 6.15 µM. It also gave a TGI (IGROV1 ovarian) of 54.1 µM, a GI50 (SF-539 CNS) of 1.94 µM and a TGI (SF-539 CNS) of 4.01 µM. For the same compound, the GI50 (TK-10 renal) was 8.56 µM, the TGI (TK-10 renal) was 23.2 µM and the GI50 (RPMI-8226 leukemia) was 2.58 µM. The TGI (RPMI-8226 leukemia) was 6.99 µM, the GI50 (HCT-116 colon) was 4.18 µM and the TGI (HCT-116 colon) was 19.6 µM. For the same compound, the GI50 (SN12C renal) was 7.9 µM, the TGI (SN12C renal) was 29.4 µM and the GI50 (MOLT-4 leukemia) was 3 µM. For the same compound, the TGI (MOLT-4 leukemia) was 9.85 µM, the GI50 (NCI-H226 lung) was 23.5 µM and the TGI (NCI-H226 lung) was 73.4 µM. The GI50 (SW-620 colon) was 3.4 µM, the TGI (SW-620 colon) was 16.6 µM and the GI50 (HOP-62 NSCLC) was 5.27 µM. It also gave a TGI (HOP-62 NSCLC) of 33.9 µM, a GI50 (K-562 leukemia) of 2.53 µM and a TGI (K-562 leukemia) of 9.07 µM. For the same compound, the GI50 (OVCAR-8 ovarian) was 10.6 µM, the TGI (OVCAR-8 ovarian) was 29.5 µM and the GI50 (HOP-92 NSCLC) was 4.76 µM. For the same compound, the TGI (HOP-92 NSCLC) was 20.5 µM, the GI50 (M14 melanoma) was 2.05 µM and the TGI (M14 melanoma) was 4.08 µM. It also gave a GI50 (KM12 colon) of 5.31 µM, a TGI (KM12 colon) of 35.8 µM and a GI50 (NCI/ADR-RES ovarian) of 17.3 µM. It also gave a TGI (NCI/ADR-RES ovarian) of 68.9 µM, a GI50 (HCT-15 colon) of 3.07 µM and a TGI (HCT-15 colon) of 18.5 µM. For the same compound, the GI50 (A498 renal) was 2.42 µM, the TGI (A498 renal) was 12.9 µM and the GI50 (786-0 renal) was 2.71 µM. The TGI (786-0 renal) was 8.46 µM, the GI50 (HT29 colon) was 3 µM and the TGI (HT29 colon) was 14.5 µM. It also gave a GI50 (SR leukemia) of 2.29 µM, a TGI (SR leukemia) of 6.65 µM and a GI50 (CAKI-1 renal) of 6.58 µM. For the same compound, the TGI (CAKI-1 renal) was 31 µM, the GI50 (PC-3 prostate) was 5.1 µM and the TGI (PC-3 prostate) was 23.7 µM. It also gave a GI50 (T-47D breast) of 6.81 µM, a TGI (T-47D breast) of 28.3 µM and a GI50 (SNB-19 CNS) of 13.1 µM. The TGI (SNB-19 CNS) was 27.6 µM, the GI50 (SF-295 CNS) was 1.98 µM and the TGI (SF-295 CNS) was 4.45 µM. The GI50 (MDA-MB-435) was 1.99 µM, the TGI (MDA-MB-435) was 4.24 µM and the GI50 (NCI-H23 lung) was 14.4 µM. It also gave a TGI (NCI-H23 lung) of 37.7 µM, a GI50 (SF-268 CNS) of 7.07 µM and a TGI (SF-268 CNS) of 40.9 µM. For the same compound, the GI50 (HCC-2998 colon) was 2.55 µM, the TGI (HCC-2998 colon) was 5.8 µM and the GI50 (OVCAR-4 ovarian) was 16.5 µM. For the same compound, the TGI (OVCAR-4 ovarian) was greater than 100 µM.
